Experimental data reported in ChEMBL document CHEMBL6092179, “Discovery of CLKs inhibitors for the treatment of non-small cell lung cancer” (Eur J Med Chem, 2024).
The source made the active and inactive calls. The calls are words filed in the database; no cut-off is given here.

Experiments:
NCI-H1299 [1] = assay: Induction of apoptosis in human NCI-H1299 cells assessed as viable cells at 2.5 uM incubated for 24 hrs by annexin V-FITC/PI staining based flow cytometric analysis (reference value: 95 %); type: functional; details: read-out: Activity
[2] = target: Dual specificity protein kinase CLK1 (Homo sapiens, UniProt P49759); assay: Inhibition of CLK1 (unknown origin) at 100 nM by ADP-Glo assay relative to control
NCI-H1299 [3] = assay: Induction of apoptosis in human NCI-H1299 cells assessed as necrotic cells at 0.5 uM incubated for 24 hrs by annexin V-FITC/PI staining based flow cytometric analysis (reference value: 2.28 %); type: functional
NCI-H1299 [4] = assay: Induction of apoptosis in human NCI-H1299 cells assessed as early apoptotic cells at 0.1 uM incubated for 24 hrs by annexin V-FITC/PI staining based flow cytometric analysis (reference value: 0.49 %); type: functional
NCI-H1299 [5] = assay: Induction of autophagy in human NCI-H1299 cells assessed as effect on LC3I protein expression at 0.1 to 1 uM incubated for 48 hrs by Western blotting analysis; type: functional, cell-based; details: dose 0.1-1 µM
NCI-H1299 [6] = assay: Induction of apoptosis in human NCI-H1299 cells assessed as downregulation of ERK expression incubated for 48 hrs by Western blotting analysis; type: functional, cell-based
NCI-H1299 [7] = assay: Induction of apoptosis in human NCI-H1299 cells assessed as early apoptotic cells at 0.25 uM incubated for 24 hrs by annexin V-FITC/PI staining based flow cytometric analysis (reference value: 0.49 %); type: functional
[8] = target: Dual specificity tyrosine-phosphorylation-regulated kinase 1B (Homo sapiens) (UniProt Q9Y463); assay: Inhibition of DYRK1B (unknown origin) at 100 nM by ADP-Glo assay relative to control
NCI-H1299 [9] = assay: Induction of apoptosis in human NCI-H1299 cells assessed as downregulation of MCL-1 expression at 0.1 to 1 uM incubated for 48 hrs by Western blotting analysis; type: functional, cell-based; details: dose 0.1-1 µM
NCI-H1299 [10] = assay: Inhibition of colony formation in human NCI-H1299 cells incubated for 7 days by crystal violet staining based analysis; type: functional, cell-based; details: time 7.0 day
NCI-H1299 [11] = assay: Induction of apoptosis in human NCI-H1299 cells assessed as necrotic cells at 2.5 uM incubated for 24 hrs by annexin V-FITC/PI staining based flow cytometric analysis (reference value: 2.28 %); type: functional
NCI-H1299 [12] = assay: Induction of apoptosis in human NCI-H1299 cells assessed as early apoptotic cells at 2.5 uM incubated for 24 hrs by annexin V-FITC/PI staining based flow cytometric analysis (reference value: 0.49 %); type: functional
NCI-H1299 [13] = assay: Induction of apoptosis in human NCI-H1299 cells assessed as early apoptotic cells at 1 uM incubated for 24 hrs by annexin V-FITC/PI staining based flow cytometric analysis (reference value: 0.49 %); type: functional
NCI-H1299 [14] = assay: cells; details: Homo sapiens, NCI-H1299, 48 h
Description: Antiproliferative activity against human NCI-H1299 cells assessed as inhibition of cell growth incubated for 48 hrs by MTT assay

[15] = target: Dual specificity protein kinase CLK4 (Homo sapiens, UniProt Q9HAZ1); assay: Inhibition of CLK4 (unknown origin) by ADP-Glo assay
NCI-H1299 [16] = assay: Induction of apoptosis in human NCI-H1299 cells assessed as late apoptotic cells at 2.5 uM incubated for 24 hrs by annexin V-FITC/PI staining based flow cytometric analysis (reference value: 2.23 %); type: functional
NCI-H1299 [17] = assay: Induction of apoptosis in human NCI-H1299 cells assessed as downregulation of BCL-2 expression at 0.1 to 1 uM incubated for 48 hrs by Western blotting analysis; type: functional, cell-based; details: dose 0.1-1 µM

Sequence of Dual specificity protein kinase CLK1 (P49759 whole entry, looked up): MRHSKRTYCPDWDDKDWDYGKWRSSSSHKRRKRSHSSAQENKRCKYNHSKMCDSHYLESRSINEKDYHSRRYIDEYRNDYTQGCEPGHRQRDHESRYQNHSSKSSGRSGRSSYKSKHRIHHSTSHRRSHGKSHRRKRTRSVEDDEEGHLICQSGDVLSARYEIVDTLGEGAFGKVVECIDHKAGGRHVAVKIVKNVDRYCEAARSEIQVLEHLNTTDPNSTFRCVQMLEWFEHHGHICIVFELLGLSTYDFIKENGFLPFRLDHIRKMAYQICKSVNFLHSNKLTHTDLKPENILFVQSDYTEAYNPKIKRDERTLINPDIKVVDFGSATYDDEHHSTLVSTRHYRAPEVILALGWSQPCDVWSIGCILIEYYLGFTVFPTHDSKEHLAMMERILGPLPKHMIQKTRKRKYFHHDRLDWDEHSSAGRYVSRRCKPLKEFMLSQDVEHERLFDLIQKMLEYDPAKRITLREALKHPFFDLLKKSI
Sequence of Dual specificity tyrosine-phosphorylation-regulated kinase 1B (Homo sapiens) (Q9Y463 whole entry, looked up): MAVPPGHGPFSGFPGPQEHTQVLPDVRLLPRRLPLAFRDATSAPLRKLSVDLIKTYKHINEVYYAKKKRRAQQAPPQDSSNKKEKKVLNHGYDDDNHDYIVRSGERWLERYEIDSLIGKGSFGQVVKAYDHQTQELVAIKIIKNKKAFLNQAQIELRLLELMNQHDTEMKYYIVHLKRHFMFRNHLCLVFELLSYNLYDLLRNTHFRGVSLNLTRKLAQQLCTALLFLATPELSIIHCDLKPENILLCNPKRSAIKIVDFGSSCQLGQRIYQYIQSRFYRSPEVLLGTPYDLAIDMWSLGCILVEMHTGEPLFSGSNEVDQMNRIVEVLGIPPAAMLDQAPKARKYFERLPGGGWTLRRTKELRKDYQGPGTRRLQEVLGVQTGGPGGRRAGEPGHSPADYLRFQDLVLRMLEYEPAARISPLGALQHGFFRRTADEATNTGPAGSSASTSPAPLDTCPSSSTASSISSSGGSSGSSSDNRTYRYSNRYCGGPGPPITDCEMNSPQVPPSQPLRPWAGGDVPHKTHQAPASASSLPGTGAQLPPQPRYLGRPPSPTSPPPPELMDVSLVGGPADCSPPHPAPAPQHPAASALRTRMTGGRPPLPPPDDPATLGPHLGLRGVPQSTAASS
Sequence of Dual specificity protein kinase CLK4 (Q9HAZ1 whole entry): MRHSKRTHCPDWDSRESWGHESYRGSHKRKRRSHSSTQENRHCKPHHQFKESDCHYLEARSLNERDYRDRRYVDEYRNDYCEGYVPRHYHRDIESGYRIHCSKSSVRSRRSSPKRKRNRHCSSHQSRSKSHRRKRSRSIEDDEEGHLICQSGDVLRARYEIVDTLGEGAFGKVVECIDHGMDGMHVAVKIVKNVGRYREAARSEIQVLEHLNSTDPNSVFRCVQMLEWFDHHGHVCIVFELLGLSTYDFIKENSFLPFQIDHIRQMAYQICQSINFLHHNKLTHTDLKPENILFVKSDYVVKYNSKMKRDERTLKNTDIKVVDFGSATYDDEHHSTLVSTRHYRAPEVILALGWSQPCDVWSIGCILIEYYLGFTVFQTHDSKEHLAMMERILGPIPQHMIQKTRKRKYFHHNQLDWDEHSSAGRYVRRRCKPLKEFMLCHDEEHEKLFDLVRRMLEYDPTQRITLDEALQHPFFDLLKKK

## FC1(F)CCN(Cc2cncc(-c3ccc4[nH]nc(-c5nc(-c6ccco6)c(-c6ccco6)[nH]5)c4c3)c2)C1
NCI-H1299 [1]
  viability at 2.5 µM: 82%
[2]
  inhibition: 98.1%
NCI-H1299 [3]
  Activity: 0.89%
NCI-H1299 [4]
  Activity: 1.45%
NCI-H1299 [5]
  Activity: Active
NCI-H1299 [6]
  Activity: Dose-dependent-effect
NCI-H1299 [7]
  Activity: 3.57%
[8]
  inhibition: 84.4%
NCI-H1299 [9]
  Activity: Active
NCI-H1299 [10]
  inhibition: Dose-dependent-effect
NCI-H1299 [11]
  Activity: 1.6%
NCI-H1299 [12]
  Activity: 9.7%
NCI-H1299 [13]
  Activity: 9.75%
NCI-H1299 [14]
  IC50: 0.13 µM
[15]
  IC50: 0.0073 µM
NCI-H1299 [16]
  Activity: 6.71%
NCI-H1299 [17]
  Activity: Active
